In the supplement of paper PMC8882468:
± gives the standard deviation of the averaged measurements.

Tests used:
Assay in all cases: CTG-3D luminescence at 96 h relative to day-0 seeding control (ratio to day 0); higher = more growth / less cytotoxicity; PDxO 3D drug screen, 96 h, CTG-3D normalised to day-0 seeding control.
[1] = test system: HCI-012 (organoid from a breast cancer xenograft)
[2] = test system: HCI-027 (organoid from a triple-negative breast cancer xenograft)
[3] = test system: HCI-016 (organoid from a triple-negative breast cancer xenograft)
[4] = test system: HCI-010 (organoid from a breast cancer xenograft)
[5] = test system: HCI-003.E2 (organoid from an ER-positive breast cancer xenograft)
[6] = test system: HCI-008 (organoid from a HER2-enriched breast cancer xenograft)

Cc1cc(Nc2ncnc3ccc(NC4=NC(C)(C)CO4)cc23)ccc1Oc1ccn2ncnc2c1 [tucatinib]
CTG-3D luminescence at 96 h
Settings | 12.5 pM | 0.00025 µM | 0.005 µM | 0.1 µM | 1 µM | 10 µM | 100 µM | 625 fM
[1], days in culture: 143 | 2.24 | 2.35 | 2.17 | 2.39 | 2.43 | 1.99 | 0.0289 | 2.05
[1], days in culture: 162 | 2.64 | 2.24 | 1.87 | 3.58 | 2.71 | 2.41 | 0.0168 | 2.94
[1], days in culture: 201 | 2.71 | 2.13 | 1.62 | 1.73 | 2.34 | 1.37 | 0.053 | 1.83
[2], days in culture: 176 | 2.4 | 1.31 | 2.9 | 2.1 | 1.61 | 0.414 | 0.0112 | 1.82
[2], days in culture: 194 | 1.81 | 1.55 | 1.49 | 1.66 | 2.06 | 1.41 | 0.0114 | 1.7
[2], days in culture: 201 | 2.47 | 2.58 | 2.3 | 2.28 | 2.1 | 0.716 | 0.01 | 2.42
[3], days in culture: 153 | 2.94 | 1.99 | 2.31 | 1.49 | 2.19 | 1.96 | 0.013 | 1.94
[3], days in culture: 172 | 2.3 | 2.27 | 1.67 | 1.43 | 1.54 | 0.81 | 0.0152 | 1.3
[3], days in culture: 190 | 1.7 | 1.19 | 1.48 | 1.54 | 1.57 | 1.45 | 0.0124 | 1.1
[3], days in culture: 199 | 1.77 | 1.74 | 1.65 | 1.66 | 1.78 | 1.38 | 0.019 | 1.83
[4], days in culture: 52 | 2.07 | 2.16 | 2.18 | 2.37 | 2.53 | 2.2 | 0.0134 | 2.34
[4], days in culture: 65 | 1.6 | 1.68 | 1.97 | 1.81 | 1.83 | 1.4 | 0.008 | 1.64
[4], days in culture: 103 | 3.37 | 3.95 | 3.45 | 3.39 | 3.5 | 2.84 | 0.014 | 3.37
[6], days in culture: 228 | 1.79 ± 0.28 | 1.66 ± 0.056 | 1.49 ± 0.094 | 1.85 ± 0.34 | 1.83 ± 0.27 | 1.5 ± 0.17 | 0.0233 ± 0.013 | 1.8641 ± 0.0016
[6], days in culture: 244 | 1.41 | 1.81 | 2.11 | 1.99 | 1.83 | 1.84 | 0.0167 | 2.29

[5]
Settings | CTG-3D luminescence at 96 h
12.5 pM | 2.15 ± 0.73
0.00025 µM | 2.41 ± 0.78
0.005 µM | 2.02 ± 0.54
0.1 µM | 2.29 ± 0.47
1 µM | 1.93 ± 0.47
10 µM | 1.31 ± 0.14
100 µM | 0.018 ± 0.017
625 fM | 2.12 ± 0.46

CCN(c1cc(C#CCN2CCOCC2)cc(C(=O)NCc2c(C)cc(C)[nH]c2=O)c1C)[C@H]1CC[C@H](N(C)CCOC)CC1
CTG-3D luminescence at 96 h
Settings | 12.5 pM | 0.00025 µM | 0.005 µM | 0.1 µM | 1 µM | 10 µM | 100 µM | 625 fM
[1], days in culture: 143 | 1.91 | 2.56 | 2.37 | 2.99 | 3.02 | 3.17 | 0.606 | 1.86
[1], days in culture: 162 | 2.51 | 2.39 | 1.97 | 2.73 | 2.39 | 3.19 | 1.69 | 2.39
[1], days in culture: 201 | 2.85 | 2.09 | 1.92 | 2.18 | 2.33 | 1.83 | 2.37 | 1.64
[2], days in culture: 176 | 2.06 | 2.13 | 3.35 | 1.65 | 1.87 | 2.06 | 1.32 | 2.38
[2], days in culture: 194 | 2.66 | 1.86 | 2.09 | 2.1 | 2.03 | 2.21 | 2.02 | 1.98
[2], days in culture: 201 | 3.28 | 3.2 | 2.92 | 2.89 | 3.09 | 2.64 | 2.22 | 2.42
[3], days in culture: 153 | 2.92 | 1.14 | 2.22 | 1.64 | 2.25 | 2.06 | 1.5 | 3.1
[3], days in culture: 172 | 2.13 | 2.17 | 1.72 | 1.56 | 2.1 | 1.64 | 1.52 | 1.33
[3], days in culture: 190 | 2.02 | 1.67 | 1.75 | 1.5 | 1.73 | 1.62 | 1.56 | 1.36
[3], days in culture: 199 | 1.74 | 2.22 | 2.22 | 1.86 | 2.01 | 1.95 | 2.02 | 2.09
[4], days in culture: 52 | 1.83 | 2.5 | 2.34 | 2.47 | 2.48 | 2.29 | 1.5 | 2.03
[4], days in culture: 65 | 1.6 | 1.76 | 1.72 | 1.49 | 1.78 | 1.58 | 1.05 | 1.8
[4], days in culture: 103 | 3.17 | 3.22 | 3.07 | 3.35 | 3.09 | 2.84 | 1.88 | 2.7
[6], days in culture: 228 | 1.54 ± 0.067 | 1.571 ± 0.015 | 1.283 ± 0.0089 | 1.61 ± 0.1 | 1.59 ± 0.14 | 1.63 ± 0.48 | 1.43 ± 0.024 | 1.77 ± 0.43
[6], days in culture: 244 | 1.38 | 2.13 | 1.81 | 2.04 | 1.7 | 2.31 | 2.04 | 2.47

[5]
Settings | CTG-3D luminescence at 96 h
12.5 pM | 1.84 ± 0.67
0.00025 µM | 2.12 ± 0.78
0.005 µM | 1.71 ± 0.35
0.1 µM | 1.96 ± 0.49
1 µM | 1.74 ± 0.4
10 µM | 1.89 ± 0.95
100 µM | 0.658 ± 0.5
625 fM | 1.65 ± 0.4
